Experiment [1] has as its system Acinetobacter baumannii ATCC17968. As to the kind of experiment: Antimicrobial susceptibility testing: 90% growth inhibitory concentration (IC90) determination in Iso-Sensitest broth, OD600 growth. It is filed as cell-based. In short, it runs like this:
(§1)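 Each strain, at about 5×10^(5) CFU/ml, was incubated with twofold dilutions of compound at 35±2° C for 16 h, and IC90 was calculated from kinetic optical density measured at 600 nm during logarithmic growth.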

The test system of experiment [2] is Acinetobacter baumannii ATCC17961. Described as above. It is filed as cell-based. In short, it runs like this: as §1
The mark [3] stands for this setting: Acinetobacter baumannii, ATCC17961, 16 h, read-out: A. baumannii ATCC 17961 IC90 (uM), strain ATCC 17961, OD600 growth over 16 h.
The mark [4] stands for this setting: Acinetobacter baumannii, ATCC17961, 16 h, strain ATCC 17961, OD600 growth over 16 h, read-out: A. baumannii ATCC 17961 IC90.

Counter-ions that a name gives are not always drawn. Like-named read-outs stand apart in the source and are kept apart here.

Data on 24 compounds can be found in patent US20230203043A1, “NOVEL IMIDAZOPYRAZINE DERIVATIVES” (Hoffmann-La Roche Inc., priority 2020, published 2023).

In general, IC90 refers to the concentration needed for an effect of 90%.

On to “N-[2-(2- aminoethoxy)ethyl]- 2-ethyl-4-[[3- [1- (methoxymethyl)- 3- (trifluoromeethyl) pyrazol-4- yl]imidazo[1,2- a]pyrazin-8- yl]amino] benzamide formate [Example 22]”, for which the IC90 stood at 1.84 µM in experiment [1] (strain ATCC 17978, Iso-Sensitest broth, OD600 growth over 16 h, read-out: A. baumannii ATCC 17978 IC90) and 1.84 µM in experiment [2] (strain ATCC 17961, OD600 growth over 16 h, read-out: A. baumannii ATCC 17961 IC90).
Consider `CCc1cc(Nc2nccn3c(-c4cnn(CC(F)F)c4)cnc23)ccc1C(=O)NCCOCCN` [Example 21, N-[2-(2-aminoethoxy)ethyl]-4-[[3-[1-(2,2-difluoroethyl)pyrazol-4-yl]imidazo[1,2-a]pyrazin-8-yl]amino]-2-ethylbenzamide formate], for which the IC90 in experiment [1] (Acinetobacter baumannii, ATCC 17968 / ATCC 17978, 16 h, read-out: A. baumannii ATCC 17978 IC90 (uM)) was 4.43 µM.
On to `CCc1cc(Nc2nccn3c(-c4c[nH]nc4C(F)(F)F)cnc23)ccc1C(=O)NCCNC(=O)C1CCNCC1` [Example 553, N-(2-(2-ethyl-4-((3-(3-(trifluoromethyl)-1H-pyrazol-4-yl)imidazo[1,2-a]pyrazin-8-yl)amino)benzamido)ethyl) piperidine-4-carboxamide formate], for which the IC90 in experiment [2] (setting [3]) was found to be 0.682 µM.
Still for that read-out and setting: with `Cc1cc(Nc2nccn3c(-c4cn(C)nc4C(F)(F)F)cnc23)ccc1C(=O)N1CCN(C(=O)[C@H]2CCNC[C@H]2O)CC1` [Example 475, formic acid; [4-[(3S,4S)-3-hydroxypiperidine-4-carbonyl]piperazin-1-yl]-[2-methyl-4-[[3-[1-methyl-3-(trifluoromethyl)pyrazol-4-yl]imidazo[1,2-a]pyrazin-8-yl]amino]phenyl]methanone] the figure was 1.64 µM.
Take `N#CCn1cc(-c2cnc3c(Nc4ccc(C(=O)N5CC[C@@H](O)C5)c(Cl)c4)nccn23)c(C(F)(F)F)n1` [Example 244, 2-[4-[8-[3-chloro-4-[(3R)-3-hydroxypyrrolidine-1-carbonyl]anilino]imidazo[1,2-a]pyrazin-3-yl]-3-(trifluoromethyl)pyrazol-1-yl]acetonitrile]: the IC90 in experiment [2] (setting [4]) was determined as 0.411 µM.
Regarding `CN(C)CCNC(=O)CNC(=O)c1ccc(Nc2nccn3c(-c4cn(CC#N)nc4C(F)(F)F)cnc23)cc1Cl` [Example 693, 2-chloro-4-[[3-[1-(cyanomethyl)-3-(trifluoromethyl)pyrazol-4-yl]imidazo[1,2-a]pyrazin-8-yl]amino]-N-[2-[2-(dimethylamino)ethylamino]-2-oxo-ethyl]benzamide formate], the IC90 in experiment [2] (setting [3]) turned out to be 0.358 µM.
Consider `C[C@H]1CN(C(=O)c2ccc(Nc3nccn4c(-c5c[nH]nc5C(F)(F)F)cnc34)cc2Cl)CCN1` [Example 321, [2-chloro-4-[[3-[3-(trifluoromethyl)-1H-pyrazol-4-yl]imidazo[1,2-a]pyrazin-8-yl]amino]phenyl]-[(3S)-3-methylpiperazin-1-yl]methanone], for which the IC90 in experiment [2] (setting [4]) is 0.901 µM.
As for `CCc1cc(Nc2nccn3c(-c4c[nH]nc4C(F)(F)F)cnc23)ccc1C(=O)NCCCNC(=O)[C@@H](C)N` [Example 677, (R)-N-(3-(2-aminopropanamido)propyl)-2-ethyl-4-((3-(3-(trifluoromethyl)-1H-pyrazol-4-yl)imidazo [1,2-a]pyrazin-8-yl)amino)benzamide formate], the IC90 in experiment [2] (setting [3]) is 0.317 µM.
As for `C[C@@H](NC(=O)c1ccc(Nc2nccn3c(-c4c[nH]nc4C(F)(F)F)cnc23)cc1Cl)C(=O)NCCN` [Example 95, N-[(2R)-1-(2-aminoethylamino)-1-oxopropan-2-yl]-2-chloro-4-[[3-[3-(trifluoromethyl)-1H-pyrazol-4-yl]imidazo[1,2-a]pyrazin-8-yl]amino]benzamide formate], the IC90 in experiment [2] (setting [3]) stood at 1.53 µM.
With `N#CCn1cc(-c2cnc3c(Nc4ccc(C(=O)NCC(=O)N5CC(N)C5)c(Cl)c4)nccn23)c(C(F)(F)F)n1` [Example 713, N-[2-(3-aminoazetidin-1-yl)-2-oxo-ethyl]-2-chloro-4-[[3-[1-(cyanomethyl)-3-(trifluoromethyl)pyrazol-4-yl]imidazo[1,2-a]pyrazin-8-yl]amino]benzamide formate], in experiment [2] (setting [3]), the IC90 turned out to be 0.417 µM.
On to `C=CCn1cc(-c2cnc3c(Nc4cc(C)c(C(=O)N[C@H](C)CN)c(F)c4)nccn23)c(C(F)(F)F)n1` [Example 680, (R)-4-((3-(1-allyl-3-(trifluoromethyl)-1H-pyrazol-4-yl)imidazo[1,2-a]pyrazin-8-yl)amino)-N-(1-aminopropan-2-yl)-2-fluoro-6-methylbenzamide], for which, in experiment [2] (setting [4]), the IC90 amounted to 0.326 µM.
For the compound `O=C(NC1CCNCC1)c1ccc(Nc2nccn3c(-c4c[nH]nc4C(F)(F)F)cnc23)cc1Cl` [Example 413, 2-chloro-N-piperidin-4-yl-4-[[3-[3-(trifluoromethyl)-1H-pyrazol-4-yl]imidazo[1,2-a]pyrazin-8-yl]amino]benzamide], the IC90 in experiment [2] (setting [4]) amounted to 2.2 µM.
Regarding `C[C@@H](NC(=O)c1ccc(Nc2nccn3c(-c4c[nH]nc4C(F)(F)F)cnc23)cc1Cl)C(=O)N1CC(N)C1` [Example 99, N-[(2R)-1-(3-aminoazetidin-1-yl)-1-oxopropan-2-yl]-2-chloro-4-[[3-[3-(trifluoromethyl)-1H-pyrazol-4-yl]imidazo[1,2-a]pyrazin-8-yl]amino]benzamide formate], the concentration for an effect of 90% (IC90) in experiment [2] (setting [3]) was found to be 2.08 µM.
Turning to `O=C(N[C@@H]1CCNC1)c1ccc(Nc2nccn3c(-c4c[nH]nc4C(F)(F)F)cnc23)cc1Cl` [Example 379, 2-chloro-N-[(3R)-pyrrolidin-3-yl]-4-[[3-[3-(trifluoromethyl)-1H-pyrazol-4-yl]imidazo[1,2-a]pyrazin-8-yl]amino]benzamide], the IC90 in experiment [2] (setting [4]) is 0.576 µM.
In the case of `CCc1cc(Nc2nccn3c(-c4cn(CC#N)nc4C(F)(F)F)cnc23)ccc1C(=O)NCC(=O)NCCN` [Example 765, N-[2-(2-aminoethylamino)-2-oxo-ethyl]-4-[[3-[1-(cyanomethyl)-3-(trifluoromethyl)pyrazol-4-yl]imidazo[1,2-a]pyrazin-8-yl]amino]-2-ethyl-benzamide], the IC90 in experiment [2] (setting [4]) amounted to 0.895 µM.
The same measure, in the same setting: then `Cc1cc(Nc2nccn3c(-c4cn(CC(F)F)nc4C(F)(F)F)cnc23)cc(F)c1C(=O)N1CCN(C(=O)CN)CC1` [Example 650, 2-amino-1-(4-(4-((3-(1-(2,2-difluoroethyl)-3-(trifluoromethyl)-1H-pyrazol-4-yl)imidazo[1,2-a]pyrazin-8-yl)amino)-2-fluoro-6-methylbenzoyl)piperazin-1-yl)ethan-1-one], with 0.252 µM.
Turning to `CCc1cc(Nc2nccn3c(-c4cn(CC(F)F)nc4C(F)(F)F)cnc23)ccc1C(=O)N1CC2(CCN2)C1` [Example 564, (4-((3-(1-(2,2-difluoroethyl)-3-(trifluoromethyl)-1H-pyrazol-4-yl)imidazo[1,2-a]pyrazin-8-yl)amino)-2-ethylphenyl)(1,6-diazaspiro[3.3]heptan-6-yl)methanone formate], the IC90 in experiment [2] (setting [3]) is 0.58 µM.
Consider `CCc1cc(Nc2nccn3c(-c4cn(CCF)nc4C(F)F)cnc23)ccc1C(=O)N1CCN(C(=O)CN)CC1` [Example 788, 2-amino-1-(4-(4-((3-(3-(difluoromethyl)-1-(2-fluoroethyl)-1H-pyrazol-4-yl)imidazo[1,2-a]pyrazin-8-yl)amino)-2-ethylbenzoyl)piperazin-1-yl)ethan-1-one], for which the IC90 in experiment [2] (setting [4]) worked out at 1.6 µM.
The same measure, in the same setting: then `O=C(NC1CCN(C(=O)[C@@H]2C[C@@H](O)CN2)CC1)c1ccc(Nc2nccn3c(-c4c[nH]nc4C(F)(F)F)cnc23)cc1Cl` [Example 381, 2-chloro-N-[1-[(2S,4R)-4-hydroxypyrrolidine-2-carbonyl]piperidin-4-yl]-4-[[3-[3-(trifluoromethyl)-1H-pyrazol-4-yl]imidazo[1,2-a]pyrazin-8-yl]amino]benzamide], with 0.63 µM; and `CCc1cc(Nc2nccn3c(-c4c[nH]nc4C(F)(F)F)cnc23)ccc1C(=O)NCCCNCCCCNCCCN` [Example 270, N-[3-[4-(3-aminopropylamino)butylamino]propyl]-2-ethyl-4-[[3-[3-(trifluoromethyl)-1H-pyrazol-4-yl]imidazo[1,2-a]pyrazin-8-yl]amino]benzamide], with 2.66 µM; and `Cc1cc(Nc2nccn3c(-c4c[nH]nc4C(F)(F)F)cnc23)cc(F)c1C(=O)NCCCCCN` [Example 81, N-(5-aminopentyl)-2-fluoro-6-methyl-4-[[3-[3-(trifluoromethyl)-1H-pyrazol-4-yl]imidazo[1,2-a]pyrazin-8-yl]amino]benzamide], with 1.06 µM.
For `NCCCCCCNC(=O)c1ccc(Nc2nccn3c(-c4cn(CC(F)F)nc4C(F)(F)F)cnc23)cc1Cl` [Example 826, N-(6-aminohexyl)-2-chloro-4-((3-(1-(2,2-difluoroethyl)-3-(trifluoromethyl)-1H-pyrazol-4-yl)imidazo[1,2-α]pyrazin-8-yl)amino)benzamide hydrochloride], the IC90 in experiment [2] (setting [4]) is 0.11 µM.
As to `CCc1cc(Nc2nccn3c(-c4c[nH]nc4C(F)(F)F)cnc23)ccc1C(=O)NCCN` [Example 229, N-(2-aminoethyl)-2-ethyl-4-[[3-[3-(trifluoromethyl)-1H-pyrazol-4-yl]imidazo[1,2-a]pyrazin-8-yl]amino]benzamide formate], the IC90 in experiment [2] (setting [3]) came to 1.1 µM.
Turning to `Cc1cc(Nc2nccn3c(-c4cn(CC#N)nc4C(F)(F)F)cnc23)cc(F)c1C(=O)N1CCNCC1` [Example 77, 2-[4-[8-[3-fluoro-5-methyl-4-(piperazine-1-carbonyl)anilino]imidazo[1,2-a]pyrazin-3-yl]-3-(trifluoromethyl)pyrazol-1-yl]acetonitrile], the IC90 in experiment [2] (setting [4]) stood at 3.29 µM.
